Values quoted from earlier work as cited in US20050148519A1, “Salts of pharmacologically active compounds” (priority 2003, published 2005).

How the values were obtained:
[1] = for Injection site reaction: intramuscular or subcutaneous for flunixin, route not given for the others
[2] = dog, oral 2.2, 6.6 and 11.0 mg/kg

Structure (SMILES) | Injection site reaction [1] | Time for injection site reactions to dissipate ([1]; in vivo) | Time flunixin is present in tissues at a pharmaceutically effective amount (injection in a conventional format) [h] | Flunixin serum concentration immediately following administration (single dose 1.1 mg/kg) [µg/mL] | Flunixin serum concentration within 4 hours of administration (single dose 1.1 mg/kg) | Time post administration to undetectable flunixin serum levels (single dose 1.1 mg/kg) [h] | Side effects following oral dosing [2]
CN(C)[C@@H]1C(O)=C(C(N)=O)C(=O)[C@@]2(O)C(O)=C3C(=O)c4c(O)cccc4[C@@](C)(O)[C@H]3[C@H](O)[C@@H]12 [Oxytetracyclines, oxytetracycline] | severe injection site inflammations and even necrosis | – | – | – | – | – | –
CC[C@H]1OC(=O)C[C@@H](O)[C@H](C)[C@@H](O[C@@H]2O[C@H](C)[C@@H](O)[C@H](N(C)C)[C@H]2O)[C@@H](CCN2C[C@H](C)C[C@H](C)C2)C[C@@H](C)C(=O)/C=C/C(C)=C/[C@@H]1CO[C@@H]1O[C@H](C)[C@@H](O)[C@@H](OC)[C@H]1OC [tilmicosin] | mild injection site reactions | two to three days | – | – | – | – | –
Cc1c(Nc2ncccc2C(=O)O)cccc1C(F)(F)F [flunixin] | can cause tissue damage | – | 6 to 12 | 8 to 13 | sub micro gram/mL | 6 to 12 | vomiting, diarrhea, blood in stools, and gastro-intestinal ulceration were common
